# Laboratory results taken from ChEMBL document CHEMBL1132252, “Nonapeptide analogues containing (R)-3-hydroxybutanoate and beta-homoalanine oligomers: synthesis and binding affinity to a class I major histocompatibility complex protein” (1999).
# Non-standard residues stand in square brackets, D forms with d. Residues, ends and D or L forms follow the SMILES beside them. *: point of attachment. X1 = C[C@H](CC(=O)N[C@@H](CCCCN)C(=O)O)OC(=O)C[C@H](C)NC(=O)C[C@@H](C)O*; β3hA = C[C@H](N)CC(=O)O
# Test system: RMA-S
# Experiment: The compound was tested for binding affinity against murine RMA-S cells transfected with B*2705 by FMC analysis.
# Assay type: functional, Mus musculus
row,Molecule,C50 [µM]
1,C[C@H](CC(=O)N[C@H](C)CC(=O)N[C@@H](CCCCN)C(=O)O)NC(=O)C[C@@H](C)NC(=O)C[C@@H](C)NC(=O)[C@H](C)NC(=O)[C@H](CCCN=C(N)N)NC(=O)CN.O=C(O)C(F)(F)F.O=C(O)C(F)(F)F.O=C(O)C(F)(F)F,2.8
2,C[C@H](CC(=O)N[C@@H](CCCCN)C(=O)O)NC(=O)C[C@H](C)NC(=O)C[C@@H](C)NC(=O)C[C@H](C)NC(=O)[C@H](C)NC(=O)[C@H](CCCN=C(N)N)NC(=O)CN.O=C(O)C(F)(F)F.O=C(O)C(F)(F)F.O=C(O)C(F)(F)F,4.8
3,C[C@H](NC(=O)[C@H](CCCN=C(N)N)NC(=O)CN)C(=O)N[C@@H](C)CC(=O)N[C@@H](C)CC(=O)N[C@@H](C)CC(=O)N[C@@H](C)CC(=O)N[C@@H](CCCCN)C(=O)O,6
4,C[C@H](CC(=O)N[C@@H](C)CC(=O)N[C@@H](C)CC(=O)N[C@@H](CCCCN)C(=O)O)NC(=O)C[C@@H](C)NC(=O)[C@H](C)NC(=O)[C@H](CCCN=C(N)N)NC(=O)CN,30
5,C[C@H](CC(=O)N[C@@H](C)CC(=O)N[C@@H](C)CC(=O)N[C@@H](CCCCN)C(=O)O)OC(=O)C[C@@H](C)OC(=O)[C@H](C)NC(=O)[C@H](CCCN=C(N)N)NC(=O)CN,17
6,C[C@H](CC(=O)N[C@@H](CCCCN)C(=O)O)OC(=O)C[C@H](C)NC(=O)C[C@@H](C)OC(=O)C[C@H](C)NC(=O)[C@H](C)NC(=O)[C@H](CCCN=C(N)N)NC(=O)CN (H-GRA[β3hA]-X1),2.8
7,H-GRAFVTIGK-OH,2.8
